Data: US20100316585A1, “Use of Magnesium Stearate Dihydrate for Lubrication of Solid Industrial or Consumer Products” (priority 2008, published 2010)

Tests used:
[1] = Percent water (free and bound) of neat MgSt hydrates; type: physicochemical; conditions: neat MgSt hydrate
Procedure: Thermal gravimetric analysis (Q50 TGA, TA Instruments) was carried out from 25 to 190° C. at a heating rate of 5° C./min. Data acquisition and analysis were conducted using TA Instruments software. FIG. 4 presents the TGA of MgSt-M and MgSt-D.

[2] = Particle-size distribution by laser diffraction; type: physicochemical; conditions: neat MgSt hydrate
Procedure: Particle-size distributions were determined using a laser diffraction system (series 2600, Malvern Instruments Ltd., Malvern, UK) equipped with a 63-mm lens (size range of 1.2-118 μm) and a stirred cell.

| Substance | Dihydrate water [1] | Free water [1] | Monohydrate water [1] | percent bound moisture [1] | Particle size (nominal mean particle size) [2] | Free water ([1]; dihydrate) | Free water ([1]; listed as MqSt-D, dihydrate) |
| --- | --- | --- | --- | --- | --- | --- | --- |
| magnesium stearate [MgSt-M, reference compound] | 0% | 0.6% | 2.8% | 2.8% | 10.6 μm |  |  |
| magnesium stearate dihydrate [MgSt-D] | 5.6% |  | 0% | 5.6% | 14.3 μm | little or no free water | 0% |
